Among the data in patent publication US10377709B2, “Carboxamide derivatives and the use thereof as medicaments for the treatment of hepatitis B” (Janssen Sciences Ireland UC, priority 2013, dated 2019) are EC50 and CC50 values, retold here.

For data set [1], the system named is HBV. Description: Anti-HBV activity in HepG2.117 inducible HBV producing cell line (intracellular HBV DNA, realtime PCR). As to conditions: HepG2.117 cells (Tet-off), 3 days of treatment, intracellular HBV DNA by realtime PCR. The data set is classed as cell-based, Hepatitis B virus.
A short description of data set [2]: Cytotoxicity in HepG2 cells (Resazurin assay). The class given is cell-based. As to conditions: human, incubated 4 days, viability by Resazurin assay. On the technique in general: The colour change of resazurin is a common sign of viable cells or microbes.
Data set [3] relates to HBV. The experiment in a line: Anti-HBV activity in HepG2.2.15 stable transfected cell line (HBV DNA from secreted virions, realtime PCR). The data set is classed as cell-based, Hepatitis B virus. As to conditions: HepG2.2.15 cells, 6 days of treatment, HBV DNA from secreted virions by realtime PCR.
Where [4] appears, read: Hepatitis B virus, HepG2.117, 72 h.
[5] abbreviates: Hepatitis B virus, HepG2.2.15, 144 h.

The term EC50 denotes the concentration giving half of the maximal effect. Lower therefore signals greater potency. What is called CC50 is the concentration that lowers cell viability or growth by half. Read a high CC50 as lower toxicity to the cells. In the case of `Cc1cc(NC(=O)C2CC(C)N(C(=O)C(=O)NC3(C)COC3)C2)ccc1F` (single isomer, unassigned) [Compound 17a, N-(4-fluoro-3-methylphenyl)-5-methyl-1-(2-((3-methyloxetan-3-yl)amino)-2-oxoacetyl)pyrrolidine-3-carboxamide], the 50% effective concentration (EC50) in data set [1] and in data set [3] was greater than 1000 nM each time. Besides, the CC50 at 4 days in data set [2] is greater than 25000 nM.
For the compound `CC(C)NC(=O)C(=O)N1CCC(C(=O)Nc2cc(F)c(F)c(Cl)c2)[C@@H]1C` (single isomer, unassigned) [Compound 29a], the EC50 in data set [1] was 11 nM; in data set [3] it was 10 nM. In addition, the CC50 at 4 days in data set [2] was greater than 25000 nM.
For `CC1C(C(=O)Nc2ccc(F)c(Cl)c2F)CCCN1C(=O)C(=O)N[C@H](C)C(F)(F)F` (single isomer, unassigned) [Compound 35a] the same measures were greater than 1000 nM, greater than 1000 nM and greater than 25000 nM.
Turning to `C[C@@H](NC(=O)C(=O)N1CC[C@H](C(=O)Nc2cc(F)c(F)c(Br)c2)C1)C(F)(F)F` [Compound 1, (S)-N-(3-bromo-4,5-difluorophenyl)-1-(2-oxo-2-(((R)-1,1,1-trifluoropropan-2-yl)amino)acetyl)pyrrolidine-3-carboxamide], the EC50 was 18 nM in data set [1] (setting [4]) and 20 nM in data set [3] (setting [5]). The CC50 at 4 days in data set [2] is greater than 25000 nM.
Take `CC1(NC(=O)C(=O)N2CC[C@H](C(=O)Nc3cc(F)c(F)c(Br)c3)C2)COC1` [Compound 2, (S)-N-(3-bromo-4,5-difluorophenyl)-1-(2-((3-methyloxetan-3-yl)amino)-2-oxoacetyl)pyrrolidine-3-carboxamide]: the EC50 is 33 nM in data set [1] (setting [4]) and 70 nM in data set [3] (setting [5]). Also, the CC50 at 4 days in data set [2] is greater than 25000 nM.
Consider `CC(C)(C)NC(=O)C(=O)N1CC[C@H](C(=O)Nc2cc(F)c(F)c(Br)c2)C1` [Compound 3, (S)-N-(3-bromo-4,5-difluorophenyl)-1-(2-(tert-butylamino)-2-oxoacetyl)-pyrrolidine-3-carboxamide], for which the EC50 amounted to 26 nM in data set [1] (setting [4]) and 141 nM in data set [3] (setting [5]). Besides, the 50% cytotoxic concentration (CC50) at 4 days in data set [2] is greater than 25000 nM.
For `Cc1cc(NC(=O)[C@H]2CCN(C(=O)C(=O)NC(C)C)C2)ccc1F` [Compound 4, (3S)-N-(4-Fluoro-3-methylphenyl)-1-{[(1-methylethyl)amino] (oxo)acetyl}-pyrrolidine-3-carboxamide] the same measures were 71 nM, 126 nM and greater than 25000 nM.
For `Cc1cc(NC(=O)[C@H]2CCN(C(=O)C(=O)NC3CCCC3)C2)ccc1F` [Compound 5] the same measures were 46 nM, 112 nM and greater than 25000 nM.
For `Cc1cc(NC(=O)[C@H]2CCN(C(=O)C(=O)N[C@H](C)CO)C2)ccc1F` [Compound 6, (S)-N-(4-fluoro-3-methylphenyl)-1-(2-(((R)-1-hydroxypropan-2-yl)amino)-2-oxoacetyl)pyrrolidine-3-carboxamide] the same measures were 257 nM, 301 nM and greater than 25000 nM.
On to `Cc1cc(NC(=O)[C@H]2CCN(C(=O)C(=O)NC3(C)COC3)C2)ccc1F` [Compound 7, (3S)-N-(4-Fluoro-3-methylphenyl)-1-{[(3-methyloxetan-3-yl)amino]-(oxo)acetyl}pyrrolidine-3-carboxamide], for which the EC50 in data set [1] (setting [4]) worked out at 117 nM; in data set [3] (setting [5]) it was 67 nM. The compound further returned a half-maximal cytotoxic concentration (CC50) at 4 days in data set [2] greater than 25000 nM.
The like results for `CC[C@@H](C)NC(=O)C(=O)N1CC[C@H](C(=O)Nc2ccc(F)c(C)c2)C1` [Compound 8, (3S)-N-(4-Fluoro-3-methylphenyl)-1-[{[(1R)-1-methylpropyl]amino}(oxo)acetyl]pyrrolidine-3-carboxamide] were, in that order, 38 nM, 65 nM and greater than 25000 nM.
`Cc1cc(NC(=O)[C@H]2CCN(C(=O)C(=O)N[C@H]3CCOC3)C2)ccc1F` [Compound 9, (3S)-N-(4-Fluoro-3-methylphenyl)-1-{oxo[(3S)-tetrahydrofuran-3-ylamino]-acetyl}pyrrolidine-3-carboxamide]: the EC50 in data set [1] (setting [4]) was determined as 134 nM; in data set [3] (setting [5]), 120 nM. Further, the CC50 at 4 days in data set [2] was greater than 25000 nM.
The like results for `Cc1cc(NC(=O)[C@H]2CCN(C(=O)C(=O)NC3(C)COC3)[C@H]2C)ccc1F` [Compound 10, (2S,3S)-N-(4-Fluoro-3-methylphenyl)-2-methyl-1-{[(3-methyloxetan-3-yl)-amino](oxo)acetyl}pyrrolidine-3-carboxamide] were, in that order, 9 nM, 8 nM and greater than 25000 nM.
For `C[C@@H](NC(=O)C(=O)N1CC[C@H](C(=O)Nc2cc(F)c(F)c(Cl)c2)C1)C(F)(F)F` [Compound 11, (S)-N-(3-chloro-4,5-difluorophenyl)-1-(2-oxo-2-(((R)-1,1,1-trifluoropropan-2-yl)amino)acetyl)pyrrolidine-3-carboxamide] the same measures were 17 nM, 32 nM and greater than 25000 nM.
Consider `Cc1cc(NC(=O)[C@H]2CCCN(C(=O)C(=O)NC(C)C)C2)ccc1F` [Compound 12, (3S)-N-(4-Fluoro-3-methylphenyl)-1-{[(1-methylethyl)amino] (oxo)-acetyl}piperidine-3-carboxamide], for which the values for the EC50 in data set [1] (setting [4]) and in data set [3] (setting [5]) were 115 nM and 321 nM, respectively. Further, the CC50 at 4 days in data set [2] was greater than 25000 nM.
For `O=C(NC1(C(F)(F)F)CC1)C(=O)N1CC[C@H](C(=O)Nc2cc(F)c(F)c(Cl)c2)C1` [Compound 13, (S)-N-(3-chloro-4,5-difluorophenyl)-1-(2-oxo-2-((1-(trifluoromethyl)cyclopropyl)amino)acetyl)pyrrolidine-3-carboxamide] the same measures were 35 nM, 20 nM and greater than 25000 nM.
The like results for `C[C@@H](NC(=O)C(=O)N1CC[C@H](C(=O)Nc2ccc(F)c(C(F)(F)F)c2)C1)C(F)(F)F` [Compound 14, (S)-N-(4-fluoro-3-(trifluoromethyl)phenyl)-1-(2-oxo-2-(((R)-1,1,1-trifluoropropan-2-yl)amino)acetyl)pyrrolidine-3-carboxamide] were, in that order, 45 nM, 64 nM and greater than 25000 nM.
For `C[C@@H](NC(=O)C(=O)N1CC[C@H](C(=O)Nc2ccc(F)c(Cl)c2)C1)C(F)(F)F` [Compound 15, (S)-N-(3-chloro-4-fluorophenyl)-1-(2-oxo-2-(((R)-1,1,1-trifluoropropan-2-yl)amino)acetyl)pyrrolidine-3-carboxamide] the same measures were 47 nM, 25 nM and greater than 25000 nM.
With `CC(C)(NC(=O)C(=O)N1CC[C@H](C(=O)Nc2cc(F)c(F)c(Cl)c2)C1)C(F)(F)F` [Compound 16, (S)-N-(3-chloro-4,5-difluorophenyl)-1-(2-oxo-2-((1,1,1-trifluoro-2-methylpropan-2-yl)amino)acetyl)pyrrolidine-3-carboxamide], the concentration for a half-maximal effect (EC50) in data set [1] (setting [4]) was found to be 35 nM; in data set [3] (setting [5]) it was 58 nM. Also, the CC50 at 4 days in data set [2] was greater than 25000 nM.
On to `C[C@@H](NC(=O)C(=O)N1CCC(C(=O)Nc2cc(F)c(F)c(Cl)c2)C1(C)C)C(F)(F)F` (stereo partly drawn) [Compound 18, N-(3-chloro-4,5-difluoro-phenyl)-2,2-dimethyl-1-[2-oxo-2-[[(1R)-2,2,2-trifluoro-1-methyl-ethyl]amino]acetyl]pyrrolidine-3-carboxamide], for which the EC50 in data set [1] (setting [4]) stood at 670 nM. In data set [2], this compound came in with a CC50 at 4 days greater than 25000 nM.
Turning to `CC(C)(C)NC(=O)C(=O)N1CC[C@H](C(=O)Nc2ccc(F)c(Cl)c2F)C1` [Compound 19, (3S)-1-[2-(tert-butylamino)-2-oxo-acetyl]-N-(3-chloro-2,4-difluoro-phenyl)pyrrolidine-3-carboxamide], the results for the concentration for a half-maximal effect (EC50) in data set [1] (setting [4]) and in data set [3] (setting [5]) were 449 nM and 496 nM, respectively. For the same compound, the CC50 at 4 days in data set [2] is greater than 25000 nM.
In data set [1] (setting [4]), `C[C@H]1[C@H](C(=O)Nc2cc(F)c(F)c(Cl)c2)CCN1C(=O)C(=O)N[C@H](C)C(F)(F)F` [Compound 33a, (2S,3R)—N-(3-chloro-4,5-difluoro-phenyl)-2-methyl-1-[2-oxo-2-[[(1R)-2,2,2-trifluoro-1-methyl-ethyl]amino]acetyl]pyrrolidine-3-carboxamide] had an EC50 greater than 500 nM. The cytotoxic concentration (CC50) at 4 days in data set [2] was greater than 25000 nM.
The like results for `C[C@H]1[C@@H](C(=O)Nc2cc(F)c(F)c(Cl)c2)CCN1C(=O)C(=O)N[C@H](C)C(F)(F)F` [Compound 33b, (2S,3S)-N-(3-chloro-4,5-difluoro-phenyl)-2-methyl-1-[2-oxo-2-[[(1R)-2,2,2-trifluoro-1-methyl-ethyl]amino]acetyl]pyrrolidine-3-carboxamide] were, in that order, 5 nM and greater than 25000 nM.
The like results for `C[C@H]1[C@H](C(=O)Nc2cc(F)c(F)c(F)c2)CCN1C(=O)C(=O)N[C@H](C)C(F)(F)F` [Compound 34a, (2S,3R)-2-methyl-1-[2-oxo-2-[[(1R)-2,2,2-trifluoro-1-methyl-ethyl]amino]acetyl]-N-(3,4,5-trifluorophenyl)pyrrolidine-3-carboxamide] were, in that order, greater than 500 nM and greater than 25000 nM.
For `C[C@H]1[C@@H](C(=O)Nc2cc(F)c(F)c(F)c2)CCN1C(=O)C(=O)N[C@H](C)C(F)(F)F` [Compound 34b, (2S,3S)-2-methyl-1-[2-oxo-2-[[(1R)-2,2,2-trifluoro-1-methyl-ethyl]amino]acetyl]-N-(3,4,5-trifluorophenyl)pyrrolidine-3-carboxamide] the same measures were 4 nM and greater than 25000 nM.
